pIC50: −log10 of the molar value.
Legend:
[1] = biological target: T1, Voltage-gated inwardly rectifying potassium channel KCNH2 (Homo sapiens, UniProt Q12809); experiment: Inhibition of hERG in HEK293 cells at -80 mV holding potential by automated patch clamp electrophysiology; format: toxicity, cell-based
[2] = biological target: T2, Bromodomain-containing protein 3 (Homo sapiens, UniProt Q15059); experiment: Inhibition of BRD3 BD2 (unknown origin) using biotinylated tetra-acetylated H4 peptide SGRG-K(Ac)-GG-K(Ac)-GLG-K(Ac)-GGA-K(Ac)-RHRK-Biotin as substrate incubated for 1 hr by TR-FRET assay
[3] = biological target: T2, Bromodomain-containing protein 3; experiment: Inhibition of BRD3 BD1 (unknown origin) using biotinylated tetra-acetylated H4 peptide SGRG-K(Ac)-GG-K(Ac)-GLG-K(Ac)-GGA-K(Ac)-RHRK-Biotin as substrate incubated for 1 hr by TR-FRET assay
[4] = biological target: T3, Bromodomain-containing protein 2 (Homo sapiens, UniProt P25440); experiment: Inhibition of BRD2 BD2 (unknown origin) using biotinylated tetra-acetylated H4 peptide SGRG-K(Ac)-GG-K(Ac)-GLG-K(Ac)-GGA-K(Ac)-RHRK-Biotin as substrate incubated for 1 hr by TR-FRET assay
[5] = biological target: T3, Bromodomain-containing protein 2; experiment: Inhibition of BRD2 BD1 (unknown origin) using biotinylated tetra-acetylated H4 peptide SGRG-K(Ac)-GG-K(Ac)-GLG-K(Ac)-GGA-K(Ac)-RHRK-Biotin as substrate incubated for 1 hr by TR-FRET assay
[6] = biological target: T4, Bromodomain testis-specific protein (Homo sapiens, UniProt Q58F21); experiment: Inhibition of BRDT BD2 (unknown origin) using biotinylated tetra-acetylated H4 peptide SGRG-K(Ac)-GG-K(Ac)-GLG-K(Ac)-GGA-K(Ac)-RHRK-Biotin as substrate incubated for 1 hr by TR-FRET assay
[7] = biological target: T4, Bromodomain testis-specific protein; experiment: Inhibition of BRDT BD1 (unknown origin) using biotinylated tetra-acetylated H4 peptide SGRG-K(Ac)-GG-K(Ac)-GLG-K(Ac)-GGA-K(Ac)-RHRK-Biotin as substrate incubated for 1 hr by TR-FRET assay
MV4-11 [8] = experiment: Antiproliferative activity against human MV4-11 cells assessed as inhibition of cell proliferation incubated for 72 hrs by CellTiterGlo luminescence assay; format: functional, cell-based; conditions: MV4-11, 72 h
MOLM-13 = experiment: Antiproliferative activity against human MOLM-13 cells assessed as inhibition of cell proliferation incubated for 72 hrs by CellTiterGlo luminescence assay; format: functional, cell-based; conditions: MOLM-13, 72 h
MV4-11 [9] = experiment: Antitumor activity against human MV4-11 cells xenografted in BALB/c nude mouse assessed as tumor growth inhibition at 37.5 mg/kg, po administered once daily for 21 days and measured every other day relative to control; format: functional; conditions: MV4-11, 504 h, time 21 day, read-out: TGI
[10] = biological target: T1, Voltage-gated inwardly rectifying potassium channel KCNH2; experiment: Inhibition of hERG expressed in HEK293 cells at -80 mV holding potential by whole-cell patch clamp technique; format: toxicity, cell-based

T1 sequence (Q12809 whole entry): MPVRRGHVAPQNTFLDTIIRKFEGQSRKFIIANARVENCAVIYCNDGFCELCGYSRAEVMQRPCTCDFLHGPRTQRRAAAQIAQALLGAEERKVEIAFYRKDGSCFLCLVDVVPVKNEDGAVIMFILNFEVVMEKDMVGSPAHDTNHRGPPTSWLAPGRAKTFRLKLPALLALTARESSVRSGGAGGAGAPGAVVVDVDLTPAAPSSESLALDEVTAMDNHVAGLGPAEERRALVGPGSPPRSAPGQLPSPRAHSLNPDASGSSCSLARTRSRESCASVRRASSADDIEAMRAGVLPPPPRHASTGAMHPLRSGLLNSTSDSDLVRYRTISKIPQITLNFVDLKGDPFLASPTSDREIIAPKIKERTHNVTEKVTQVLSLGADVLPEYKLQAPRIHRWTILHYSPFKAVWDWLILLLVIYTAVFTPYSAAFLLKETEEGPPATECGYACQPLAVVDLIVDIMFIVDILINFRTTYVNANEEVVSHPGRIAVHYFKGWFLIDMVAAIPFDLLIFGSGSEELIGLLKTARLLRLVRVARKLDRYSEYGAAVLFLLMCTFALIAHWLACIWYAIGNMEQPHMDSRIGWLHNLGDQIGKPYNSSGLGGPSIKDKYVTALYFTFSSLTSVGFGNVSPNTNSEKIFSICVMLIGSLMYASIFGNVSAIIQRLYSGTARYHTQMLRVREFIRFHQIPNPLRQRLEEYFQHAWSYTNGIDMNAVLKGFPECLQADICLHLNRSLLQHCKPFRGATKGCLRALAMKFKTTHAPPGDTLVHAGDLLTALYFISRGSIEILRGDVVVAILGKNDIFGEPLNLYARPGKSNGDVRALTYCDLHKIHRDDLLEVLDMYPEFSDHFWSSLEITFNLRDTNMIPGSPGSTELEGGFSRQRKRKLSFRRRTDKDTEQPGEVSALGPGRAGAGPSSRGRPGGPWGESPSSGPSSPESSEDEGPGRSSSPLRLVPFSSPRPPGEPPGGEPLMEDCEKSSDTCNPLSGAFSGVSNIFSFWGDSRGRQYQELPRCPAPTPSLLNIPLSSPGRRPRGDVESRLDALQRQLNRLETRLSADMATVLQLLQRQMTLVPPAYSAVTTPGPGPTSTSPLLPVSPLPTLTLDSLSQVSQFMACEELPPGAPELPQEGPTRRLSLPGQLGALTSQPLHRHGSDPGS
T2 sequence (Q15059 whole entry): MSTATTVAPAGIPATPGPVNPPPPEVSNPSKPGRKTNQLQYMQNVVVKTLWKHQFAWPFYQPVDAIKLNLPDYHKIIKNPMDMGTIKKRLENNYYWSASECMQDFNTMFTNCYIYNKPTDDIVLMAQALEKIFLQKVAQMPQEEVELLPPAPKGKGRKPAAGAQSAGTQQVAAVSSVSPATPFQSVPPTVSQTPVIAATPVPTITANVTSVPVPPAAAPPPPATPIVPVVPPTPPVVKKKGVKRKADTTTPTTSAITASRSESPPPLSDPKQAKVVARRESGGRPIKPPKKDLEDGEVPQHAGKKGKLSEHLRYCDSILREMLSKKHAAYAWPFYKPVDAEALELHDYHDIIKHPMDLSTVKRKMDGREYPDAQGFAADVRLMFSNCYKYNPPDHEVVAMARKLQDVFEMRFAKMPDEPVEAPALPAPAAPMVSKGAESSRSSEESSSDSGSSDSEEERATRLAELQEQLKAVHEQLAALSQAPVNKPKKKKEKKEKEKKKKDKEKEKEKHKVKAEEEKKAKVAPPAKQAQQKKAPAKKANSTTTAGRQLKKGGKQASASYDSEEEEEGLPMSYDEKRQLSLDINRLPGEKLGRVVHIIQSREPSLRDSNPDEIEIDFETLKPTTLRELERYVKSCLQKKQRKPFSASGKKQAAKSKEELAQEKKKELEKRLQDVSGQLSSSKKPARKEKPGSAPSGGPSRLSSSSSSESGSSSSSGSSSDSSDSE
T3 sequence (P25440 whole entry): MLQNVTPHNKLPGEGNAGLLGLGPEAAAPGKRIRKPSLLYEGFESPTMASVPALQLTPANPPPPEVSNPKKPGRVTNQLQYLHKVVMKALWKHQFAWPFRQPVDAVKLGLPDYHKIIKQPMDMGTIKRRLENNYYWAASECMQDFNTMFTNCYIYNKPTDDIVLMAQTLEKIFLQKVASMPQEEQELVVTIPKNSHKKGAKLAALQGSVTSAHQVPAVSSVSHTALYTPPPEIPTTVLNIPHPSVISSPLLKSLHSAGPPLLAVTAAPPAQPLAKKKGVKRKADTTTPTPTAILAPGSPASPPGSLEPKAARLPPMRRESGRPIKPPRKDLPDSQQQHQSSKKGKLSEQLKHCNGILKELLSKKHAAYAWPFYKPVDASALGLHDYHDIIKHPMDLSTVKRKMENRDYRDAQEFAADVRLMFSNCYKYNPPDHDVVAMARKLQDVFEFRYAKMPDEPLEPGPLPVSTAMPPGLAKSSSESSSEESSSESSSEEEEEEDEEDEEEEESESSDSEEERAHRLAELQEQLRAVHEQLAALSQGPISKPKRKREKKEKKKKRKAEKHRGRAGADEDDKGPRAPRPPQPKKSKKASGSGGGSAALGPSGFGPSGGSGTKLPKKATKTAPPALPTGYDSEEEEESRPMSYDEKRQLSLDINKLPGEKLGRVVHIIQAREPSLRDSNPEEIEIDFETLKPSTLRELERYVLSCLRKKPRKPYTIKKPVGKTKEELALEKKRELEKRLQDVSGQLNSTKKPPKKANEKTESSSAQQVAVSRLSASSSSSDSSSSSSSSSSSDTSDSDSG

SMILES | pIC50 [1] | pIC50 [2] | pIC50 [3] | pIC50 [4] | pIC50 [5] | pIC50 [6] | pIC50 [7] | pIC50 (MV4-11 [8]) | pIC50 (MOLM-13) | inhibition in vivo at 37.5 mg/kg (MV4-11 [9]) | pIC50 [10]
CCNC(=O)COc1cc(=O)n(C)cc1-c1cc(C(C)(C)O)ccc1Oc1c(C)cccc1C | < 4.52 | – | – | – | – | – | – | – | – | – | –
Cc1cc(F)cc(C)c1Oc1ccc(C(C)(C)O)cc1-c1cn(C)c(=O)cc1NCC(=O)N1CCOCC1 | < 4.52 | 7.80 | 4.89 | 7.95 | 4.87 | 8.01 | 5.36 | – | – | – | –
CCNC(=O)c1cc2c(-c3cc(C(C)(C)O)ccc3Oc3c(C)cc(F)cc3C)cn(C)c(=O)c2[nH]1 [ABBV-744] | 5.55 | – | – | – | – | – | – | 7.82 | 7.41 | 55% | 5.51

— ChEMBL document CHEMBL5537163, “Discovery of Novel Phenoxyaryl Pyridones as Bromodomain and Extra-Terminal Domain (BET) Inhibitors with High Selectivity for the Second Bromodomain (BD2) to Potentially Treat Acute Myeloid Leukemia” (J Med Chem, 2024)
